Structures can show the parent of a compound that is named as a salt.

As for `CNCc1ccc(CN(C)c2nc(=O)c3c(C)c(OC)c(OC)cc3[nH]2)cc1` (as salt: HCl) [Example 55, 6,7-Dimethoxy-5-methyl-2-[methyl-(4-methylaminomethyl-benzyl)-amino]-1H-quinazolin-4-one], the melting point fell in the range of 264 to 268 °C.

`CCN1CCN(c2cccc(CN(C)c3nc(=O)c4c(OC)c(OC)c(OC)cc4[nH]3)c2)C1=O` [Example 265, 2-{[3-(3-Ethyl-2-oxo-imidazolidin-1-yl)-benzyl]-methyl-amino}-5,6,7-trimethoxy-1H-quinaozlin-4-one] had a melting point of 200.3 to 200.9 °C. `C/N=C(/C)N(C)c1cccc(CN(C)c2nc(=O)c3c(C)c(OC)c(OC)cc3[nH]2)c1` [Example 194] yielded a melting point of 181.2 to 186.6 °C.

With `CCc1c(OC)c(OC)cc2[nH]c(N(C)Cc3cccc(N=C4N(C)CCN4C)c3)nc(=O)c12` (as salt: salt) [Example 207, 2-{[3-(1,3-dimethyl-imidazolidin-2-ylideneamino)-benzyl]-methyl-amino}-5-ethyl-6,7-dimethoxy-1H-quinaolin-4-one], the melting point is 212.5 to 219.9 °C. Consider `COCC(=O)N(C)Cc1cccc(CN(C)c2nc(=O)c3c(OC)c(OC)c(OC)cc3[nH]2)c1` [Example 120, 2-Methoxy-N-methyl-N-(3-{[methyl-(5,6,7-trimethoxy-4-oxo-1,4-dihydro-quinazolin-2-yl)-amino]-methyl}-benzyl)-acetamide], for which the melting point lay within 115 to 117 °C.

The compound `CCc1c(OC)c(OC)cc2[nH]c(N(C)Cc3cccc(/N=C(\C)N(C)C)c3)nc(=O)c12` [Example 199, N′-(3-{[(5-Ethyl-6,7-dimethoxy-4-oxo-1,4-dihydro-quinazolin-2-yl)-methyl-amino]-methyl}-phenyl)-N,N-dimethyl-acetamidine] came in with a melting point of 224.6 to 225.5 °C. Next, `CNCc1cccc(CN(C)c2nc3cc(OC)c(OC)c(C)c3c(=O)[nH]2)c1` [Example C-1, 6,7-Dimethoxy-5-methyl-2-[methyl-(3-methylaminomethyl-benzyl)-amino]-1H-quinazolin-4-one]: 179 to 181.3 °C; `COc1cc2[nH]c(N(C)Cc3cccc(C#N)c3)nc(=O)c2c(C)c1OC` (as salt: TFA) [Example 96, 3-{[(6,7-Dimethoxy-5-methyl-4-oxo-1,4-dihydro-quinazolin-2-yl)-methyl-amino]-methyl}-benzonitrile]: 279.9 to 281.5 °C. `COc1cc2[nH]c(N(C)Cc3cccc(Oc4ncccn4)c3)nc(=O)c2c(C)c1OC` (as salt: salt) [Example F-3, 6,7-Dimethoxy-5-methyl-2-{methyl-[3-(pyrimidin-2-yloxy)-benzyl]-amino}-1H-quinazolin-4-one] showed a melting point of 224 to 227.8 °C. `COCCNc1cccc(CN(C)c2nc(=O)c3c(OC)c(OC)c(OC)cc3[nH]2)c1` [Example G-19, 5,6,7-Trimethoxy-2-{[3-(2-methoxy-ethylamino)-benzyl]-methyl-amino}-1H-quinazolin-4-one] registered a melting point of 178.9 to 179.9 °C. Take `COc1cc2[nH]c(N(C)Cc3cccc(-n4cnc(C)c4)c3)nc(=O)c2c(C)c1OC` [Example 230, 6,7-Dimethoxyt-5-methyl-2-{methyl-[3-(4-methyl-imidazol-1-yl)-benzyl]-amino}-1H-quinazolin-4-one]: the melting point was in the range of 245 to 249.5 °C. Next, `COCC(=O)N(C)Cc1cccc(CN(C)c2nc(=O)c3c(C)c(OC)c(OC)cc3[nH]2)c1` [Example 119, N-(3-{[(6,7-Dimethoxy-5-methyl-4-oxo-1,4-dihydro-quinazolin-2-yl)-methyl-amino]-methyl}-benzyl)-2-methoxy-N-methyl-acetamide]: 150 to 151.2 °C; `COc1cc2[nH]c(N(C)Cc3cccc(N4CCC(C)C4=O)c3)nc(=O)c2c(OC)c1OC` (centres unmarked) [Example 75, 5,6,7-Trimethoxy-2-{methyl-[3-(3-methyl-2-oxo-pyrrolidin-1-yl)-benzyl]-amino}-1H-quinazolin-4-one]: 156.4 to 162 °C; `CN/C(C)=N/c1cccc(CN(C)c2nc(=O)c3c(C)c(OC)c(OC)cc3[nH]2)c1` [Example 195, N-(3-{[(6,7-Dimethoxy-5-methyl-4-oxo-1,4-dihydro-quinazolin-2-yl)-methyl-amino]-methyl}-phenyl)-N′-methyl-acetamide]: 233.1 to 233.9 °C.

`COc1cc2[nH]c(N(C)Cc3ccc(OCCCN(C)C)cc3)nc(=O)c2c(OC)c1OC` [Example 48, 2-{[4-(3-Dimethylamino-propoxy)-benzyl]-methyl-amino}-5,6,7-trimethoxy-1H-quinazolin-4-one] had a melting point of 108 to 111 °C.

As to `COc1cc2[nH]c(N(C)Cc3cccc(C4=NCCN4CCO)c3)nc(=O)c2c(C)c1OC` [Example 244, 2-({3-[1-(2-Hydroxy-ethyl)-4,5-dihydro-1H-imidazol-2-yl]-benzyl}-methyl-amino)-6,7-dimethoxy-5-methyl-1H-quinazolin-4-one], the melting point was 253 to 254.9 °C.

Compound `COCCN1CCN(c2cccc(CN(C)c3nc(=O)c4c(OC)c(OC)c(OC)cc4[nH]3)c2)C1=O` [Example 266, 5,6,7-Trimethoxy-2-({3-[3-(2-methoxy-ethyl)-2-oxo-imidazllidin-1-yl]-benzyl}-methyl-amino)-1H-quinazolin-4-one] returned a melting point of 199.5 to 202.1 °C. The compound `COc1cc2[nH]c(N(C)Cc3cccc(CN(C)S(C)(=O)=O)c3)nc(=O)c2c(C)c1OC` [Example 17, N-(3-{[(6,7-Dimethoxy-5-methyl-4-oxo-1,4-dihydro-quinazolin-2-yl)-methyl-amino]-methyl}-benzyl)-N-methyl-methanesulfonamide] displayed a melting point of 223.9 to 225.9 °C. Regarding `COc1cc2[nH]c(N(C)Cc3cccc(-c4nccn4C)c3)nc(=O)c2c(C)c1OC` [Example 249, 6,7-Dimethoxy-5-methyl-2-{methyl-[3-(1-methyl-`1H-imidazol-2-yl)-benzyl]-amino}-1H-quinazolin-4-one], the melting point is 179 to 182.1 °C. In the case of `COc1ccc(CN(C)c2nc(=O)c3c(C)c(OC)c(OC)cc3[nH]2)cc1OCCN(C)CCO` [Example 16, 2-[(3-{2-[(2-Hydroxy-ethyl)-methyl-amino]-ethoxy}-4-methoxy-benzyl)-methyl-amino]-6,7-dimethoxy-5-methyl-1H-quinazolin-4-one] it was 144.8 to 146.2 °C. In the case of `COc1cc2[nH]c(N(C)Cc3cccc(NS(C)(=O)=O)c3)nc(=O)c2c(C(C)C)c1OC` [Example G-2, N-(3-{[(5-Isopropyl-6,7-dimethoxy-4-oxo-1,4-dihydro-quinazolin-2-yl)-methyl-amino]-methyl}-phenyl)-methanesulfonamide] it was 215 to 217 °C. `COc1cc2[nH]c(NCc3cccc(/N=C(\C)N(C)C)c3)nc(=O)c2c(C)c1OC` [Example 72, N′-{3-[(6,7-Dimethoxy-5-methyl-4-oxo-1,4-dihydro-quinazolin-2-ylamino)-methyl]-phenyl}-N,N-dimethyl-acetamide] returned a melting point of 173 to 175 °C. `COc1cc2[nH]c(N(C)Cc3cccc(N4CCOC4=O)c3)nc(=O)c2c(OC)c1OC` [Example 255, 5,6,7-ZTrimethoxy-2-{methyl[3-(2-oxo-oxazolidin-3-yl)-benzyl]-amino}-1H-quinazolin-4-one]: the melting point lay within 226 to 229.5 °C. In the case of `CCc1c(OC)c(OC)cc2[nH]c(N(C)Cc3cccc(N=C(C)N(C)C)c3)nc(=O)c12` [Example G-33, N′-(3-{[(5-Ethyl-6,7-dimethoxy-4-oxo-1,4-dihydro-quinazolin-2-yl)-methyl-amino]-methyl}-phenyl)-N,N-dimethyl-acetamidine] it was 224.6 to 225.5 °C; in that of `COc1cc2[nH]c(N(C)Cc3cccc(O)c3)nc(=O)c2c(C)c1OC` [Example 154, 2-[(3-Hydroxy-benzyl)-methyl-amino]-6,7-dimethoxy-5-methyl-1H-quinazolin-4-one], 252.9 to 254.35 °C. Next, `COc1cc2[nH]c(N(C)Cc3cccc(/N=C(\C4CCC4)N(C)C)c3)nc(=O)c2c(OC)c1OC` [Example 203, N,N-Dimethyl-N′-(3-{[methyl-(5,6,7-trimethoxy-4-oxo-11,4-dihydro-quinazolin-2-yl)-amino]-methyl}-phenyl)-cyclobutanecarboxamidine]: 164.2 to 165.7 °C; `COc1cc2[nH]c(N(C)Cc3cccc(CN4CCC(O)CC4)c3)nc(=O)c2c(C)c1OC` [Example 40, 2-{[3-(4-Hydroxy-piperidin-1-ylmethyl)-benzyl]-methyl-amino}-6,7-dimethoxy-5-methyl-1H-quinazolin-4-one]: 159.2 to 159.6 °C.

Regarding `COc1cc2[nH]c(N(C)Cc3cccc(N=C4CCCN4C)c3)nc(=O)c2c(OC)c1OC` [Example G-39, 5,6,7-Trimethoxy-2-{methyl-[3-(1-methyl-pyrrolidin-2-ylideneamino)-benzyl]-amino}-1H-quinazolin-4-one], the melting point was 130 to 133 °C. `COCCOC(=O)N(C)Cc1cccc(CN(C)c2nc(=O)c3c(C)c(OC)c(OC)cc3[nH]2)c1` [Example 294, (3-{[(6,7-Dimethoxy-5-methyl-4-oxo-1,4-dihydro-quinazolin-2-yl)-methyl-amino]-methyl}-benzyl)-methyl-carbamic acid 2-methoxy-ethyl ester] had a melting point of 145.8 to 146.9 °C. `CCN1CCN(c2cccc(CN(C)c3nc(=O)c4c(C)c(OC)c(OC)cc4[nH]3)c2)C1=O` [Example 264, 2-{[3-(3-Ethyl-2-oxo-imidazolidin-1-yl)-benzyl]-methyl-amino}-6,7-dimethoxy-5-methyl-1H-quinaozlin-4-one] showed a melting point of 201.4 to 207.4 °C. Compound `COc1cc2[nH]c(N(C)Cc3cccc(N4CCC(O)C4=O)c3)nc(=O)c2c(OC)c1OC` (centres unmarked) (as salt: HCl) [Example 22, 2-{[3-(3-Hydroxy-2-oxo-pyrrolidin-1-yl)-benzyl]-methyl-amino}-5,6,7-trimethoxy-1H-quinazolin-4-one] had a melting point of 172.9 to 175.9 °C. Compound `COc1cc2[nH]c(N(C)Cc3cccc(O)c3)nc(=O)c2c(OC)c1OC` [Example 155, 2-[(3-Hydroxy-benzyl)-methyl-amino]-5,6,7-trimethoxy-1H-quinazolin-4-one] gave a melting point of 212.3 to 215.1 °C.

For the origin of these results see patent US7244738B2, “Arylamine-substituted quinazolinone compounds useful as alpha 1A/B adrenergic receptor antagonists” (Roche Palo Alto LLC, priority 2003, dated 2007).
